Source: patent publication US10023592B2, “Bromodomain inhibitors” (Celgene Quanticel Research, Inc., priority 2013, dated 2018)
pIC50: −log10 of the molar value.

Legend:
[1] = system: NCI-H460, human non-small cell lung cancer cells; test: Cell-MTS proliferation assay, NCI-H460; type: cell-based; settings: Homo sapiens, 168 hr
Procedure, shortened: (§1)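 Seeded for ~90% confluence at 7 days (Raji 15,000, HL-60 5,000, NCI-H460 3,000 cells/well); compound added 24 h post-plating as 11-point dilution, 100 μM to 2.0 nM final.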

[2] = system: HL-60, human proleukemia cells; test: Cell-MTS proliferation assay, HL-60; type: cell-based; settings: Homo sapiens, 168 hr
Procedure, shortened: as §1

[3] = system: Raji, human Burkitts lymphoma cells; test: Cell-MTS proliferation assay, Raji; type: cell-based; settings: Homo sapiens, 168 hr
Procedure, shortened: as §1

[4] = target: BRD4(BD1) (Homo sapiens (Human), UniProt O60885); test: In vitro enzyme inhibition assay (BRD4 AlphaScreen); type: binding
Procedure, shortened: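 His-tagged BRD4 tested by AlphaScreen for binding of biotinylated H4K5/8/12/16-tetraacetyl peptide. After 20 min at room temperature, streptavidin donor and nickel chelate acceptor beads added (5 μg/mL final each). IC50 determined.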

[5] = NCI-H460, Cell-MTS, class symbols A/B/C
[6] = HL-60, Cell-MTS, class symbols A/B/C
[7] = Raji, Cell-MTS, class symbols A/B/C
[8] = NCI-H460, Cell-MTS proliferation
[9] = in vitro enzyme inhibition assay
[10] = Cell-MTS proliferation, NCI-H460 cells
[11] = Cell-MTS proliferation, HL-60 cells
[12] = Cell-MTS proliferation, Raji cells

SMILES | pIC50 [1, 5] | pIC50 [2, 6] | pIC50 [3, 7] | pIC50 ([4]; class symbols A/B/C) | pIC50 [1, 8] | pIC50 ([2]; HL-60, Cell-MTS proliferation) | pIC50 ([3]; Raji, Cell-MTS proliferation) | pIC50 [4, 9] | pIC50 [1, 10] | pIC50 [2, 11] | pIC50 [3, 12]
COc1ccc(-c2cn(C)c(=O)c3cc(F)ccc23)cc1S(=O)(=O)NCc1ccccc1 [Example 60, N-benzyl-5-(7-fluoro-2-methyl-1-oxoisoquinolin-4-yl)-2-methoxybenzenesulfonamide] | < 5.30 | 5.30 to 6.30 | > 6.30 | 5.30 to 6.30 |  |  |  |  |  |  | 
CCS(=O)(=O)Nc1ccc(Oc2ccc(F)cc2F)c(-c2cn(C)c(=O)c3cnccc23)c1 [Example 57, N-[4-(2,4-difluorophenoxy)-3-(2-methyl-1-oxo-2,7-naphthyridin-4-yl)phenyl]ethanesulfonamide] | < 5.30 | > 6.30 | > 6.30 | > 6.30 |  |  |  |  |  |  | 
Cn1cc(-c2cc(NS(C)(=O)=O)ccc2Oc2ccc(F)cc2F)c2occc2c1=O [Example 380, N-[4-(2,4-difluorophenoxy)-3-(5-methyl-4-oxofuro[3,2-c]pyridin-7-yl)phenyl] methanesulfonamide] |  |  |  |  |  |  |  | > 6.30 | < 5.30 | > 6.30 | > 6.30
CCS(=O)(=O)Nc1ccc(Oc2ccc(F)cc2F)c(-c2cn(C)c(=O)c3cncn23)c1 [Example 129, N-[4-(2,4-difluorophenoxy)-3-(7-methyl-8-oxoimidazo[1,5-a]pyrazin-5-yl)phenyl]ethanesulfonamide] | < 5.30 | > 6.30 | > 6.30 | > 6.30 |  |  |  |  |  |  | 
Cn1cc(-c2cn(CS(C)(=O)=O)c(=O)cc2Oc2ccc(F)cc2F)ccc1=O [Example 386, 4-(2,4-difluorophenoxy)-5-(1-methyl-6-oxopyridin-3-yl)-1-(methylsulfonylmethyl)pyridin-2-one] |  |  |  |  |  |  |  | > 6.30 | < 5.30 | 5.30 to 6.30 | 5.30 to 6.30
Cc1cc(=O)n(C)cc1-c1cc(CS(C)(=O)=O)ccc1Oc1ccc(F)cc1F [Example 454, 5-[2-(2,4-difluorophenoxy)-5-(methylsulfonylmethyl)phenyl]-1,4-dimethylpyridin-2-one] |  |  |  |  |  |  |  | > 6.30 | < 5.30 | > 6.30 | > 6.30
Cc1cc(-c2cc(N(C3COC3)S(C)(=O)=O)ccc2Oc2ccc(F)cc2F)cn(C)c1=O [Example 230, N-[4-(2,4-difluorophenoxy)-3-(1,5-dimethyl-6-oxopyridin-3-yl)phenyl]-N-(oxetan-3-yl)methanesulfonamide] |  |  |  |  | < 5.30 | > 6.30 | > 6.30 | > 6.30 |  |  | 
CCOc1ccc(S(N)(=O)=O)cc1-c1ccc(=O)n(C)c1 [Example 117, 4-ethoxy-3-(1-methyl-6-oxopyridin-3-yl)benzenesulfonamide] | < 5.30 | 5.30 to 6.30 | 5.30 to 6.30 | > 6.30 |  |  |  |  |  |  | 
CC#CCOc1ccc(S(C)(=O)=O)cc1-c1cn(C)c(=O)c2ccccc12 [Example 184, 4-(2-but-2-ynoxy-5-methylsulfonylphenyl)-2-methylisoquinolin-1-one] |  |  |  |  | 5.30 to 6.30 | > 6.30 | 5.30 to 6.30 | > 6.30 |  |  | 
Cc1cc(=O)n(C)cc1-c1cc(NS(C)(=O)=O)ccc1Oc1ccc(F)cc1F [Example 101, N-[4-(2,4-difluorophenoxy)-3-(1,4-dimethyl-6-oxopyridin-3-yl)phenyl]methanesulfonamide] | < 5.30 | > 6.30 | > 6.30 | > 6.30 |  |  |  |  |  |  | 
Cn1cc(-c2cc(S(N)(=O)=O)ccc2Oc2ccc(F)cc2F)ccc1=O [Example 118, 4-(2,4-difluorophenoxy)-3-(1-methyl-6-oxopyridin-3-yl)benzenesulfonamide] | < 5.30 | > 6.30 | > 6.30 | > 6.30 |  |  |  |  |  |  | 

Other lines, results leading:

pIC50 [1, 5] | pIC50 [2, 6] | pIC50 [3, 7] | pIC50 ([4]; class symbols A/B/C) | pIC50 [1, 8] | pIC50 ([2]; HL-60, Cell-MTS proliferation) | pIC50 ([3]; Raji, Cell-MTS proliferation) | pIC50 [4, 9] | pIC50 [1, 10] | pIC50 [2, 11] | pIC50 [3, 12] | SMILES
 |  |  |  | < 5.30 | 5.30 to 6.30 | 5.30 to 6.30 | > 6.30 |  |  |  | CCOc1sc(S(=O)(=O)CC)cc1-c1cn(C)c(=O)c2ccccc12 [Example 204, 4-(2-ethoxy-5-ethylsulfonylthiophen-3-yl)-2-methylisoquinolin-1-one]
 |  |  |  |  |  |  | > 6.30 | < 5.30 | 5.30 to 6.30 | < 5.30 | Cn1cc(-c2cn(CS(C)(=O)=O)c(=O)cc2OCC2CC2)ccc1=O [Example 381, 4-(cyclopropylmethoxy)-5-(1-methyl-6-oxopyridin-3-yl)-1-(methylsulfonylmethyl)pyridin-2-one]
 |  |  |  | < 5.30 | > 6.30 | > 6.30 | > 6.30 |  |  |  | CCS(=O)(=O)c1ccc(OCC2CC2)c(-c2cc(C3CC3)c(=O)n(C)c2)c1 [Example 280, 3-cyclopropyl-5-[2-(cyclopropylmethoxy)-5-ethylsulfonylphenyl]-1-methylpyridin-2-one]
 |  |  |  |  |  |  | > 6.30 | < 5.30 | > 6.30 | > 6.30 | Cc1cc(-c2cc(S(C)(=O)=O)ccc2NCC2CC2)cn(C)c1=O [Example 462, 5-[2-(cyclopropylmethylamino)-5-methylsulfonylphenyl]-1,3-dimethylpyridin-2-one]
 |  |  |  | < 5.30 | 5.30 to 6.30 | > 6.30 | > 6.30 |  |  |  | Cn1cc(-c2nc(NS(C)(=O)=O)ncc2OCC2CC2)c2c(c1=O)CCCC2 [Example 163, N-[5-(cyclopropylmethoxy)-4-(2-methyl-1-oxo-5,6,7,8-tetrahydroisoquinolin-4-yl)pyrimidin-2-yl]methanesulfonamide]
 |  |  |  | < 5.30 | > 6.30 | > 6.30 | > 6.30 |  |  |  | CCS(=O)(=O)Nc1ccc(Oc2ccc(F)cc2F)c(-c2cn(C)c(=O)c3ncoc23)c1 [Example 240, N-[4-(2,4-difluorophenoxy)-3-(5-methyl-4-oxo-[1,3]oxazolo[4,5-c]pyridin-7-yl)phenyl]ethanesulfonamide]
< 5.30 | > 6.30 | > 6.30 | > 6.30 |  |  |  |  |  |  |  | COc1cc(F)c(CS(C)(=O)=O)cc1-c1cn(C)c(=O)c2ccc(-c3cnn(C)c3)cc12 [Example 88, 4-[4-fluoro-2-methoxy-5-(methylsulfonylmethyl)phenyl]-2-methyl-6-(1-methylpyrazol-4-yl)isoquinolin-1-one]
 |  |  |  |  |  |  | > 6.30 | < 5.30 | > 6.30 | 5.30 to 6.30 | Cn1cc(-c2cn(CS(C)(=O)=O)c(=O)cc2OCC2CC2)c2ccc(F)cc2c1=O [Example 383, 4-[4-(cyclopropylmethoxy)-1-(methylsulfonylmethyl)-6-oxopyridin-3-yl]-7-fluoro-2-methylisoquinolin-1-one]
 |  |  |  |  |  |  | > 6.30 | 5.30 to 6.30 | > 6.30 | > 6.30 | CCS(=O)(=O)c1ccc(OCC2CC2)c(-c2cn(C)c(=O)c3ccoc23)c1 [Example 378, 7-[2-(cyclopropylmethoxy)-5-ethylsulfonylphenyl]-5-methylfuro[3,2-c] pyridin-4-one]
 |  |  |  | < 5.30 | > 6.30 | > 6.30 | > 6.30 |  |  |  | Cn1cc(-c2cc(S(C)(=O)=O)ccc2O[C@H]2CC[C@H](N)CC2)c2ccccc2c1=O [Example 182, 4-[2-(trans-4-aminocyclohexyl)oxy-5-methylsulfonylphenyl]-2-methylisoquinolin-1-one]
 |  |  |  | < 5.30 | > 6.30 | > 6.30 | > 6.30 |  |  |  | CCS(=O)(=O)Nc1ncc(OCC2CC2)c(-c2cn(C)c(=O)c3ccc(F)cc23)n1 [Example 157, N-[5-(cyclopropylmethoxy)-4-(6-fluoro-2-methyl-1-oxoisoquinolin-4-yl)pyrimidin-2-yl]ethanesulfonamide]
< 5.30 | 5.30 to 6.30 | 5.30 to 6.30 | 5.30 to 6.30 |  |  |  |  |  |  |  | CCS(=O)(=O)Nc1cccc(-c2cn(C)c(=O)c3ccncc23)c1 [Example 123, N-[3-(2-methyl-1-oxo-2,6-naphthyridin-4-yl)phenyl]ethanesulfonamide]
 |  |  |  |  |  |  | > 6.30 | < 5.30 | > 6.30 | 5.30 to 6.30 | CCS(=O)(=O)c1ccc(OC2CCC(F)(F)CC2)c(-c2cn(C)c(=O)c3cncn23)c1 [Example 373, 5-[2-(4,4-difluorocyclohexyl)oxy-5-ethylsulfonylphenyl]-7-methylimidazo[1,5-a]pyrazin-8-one]
 |  |  |  |  |  |  | > 6.30 | < 5.30 | > 6.30 | > 6.30 | Cc1cc(-c2cc(S(C)(=O)=O)ccc2OC2CCC(F)(F)CC2)cn(C)c1=O [Example 415, 5-[2-(4,4-difluorocyclohexyl)oxy-5-methylsulfonylphenyl]-1,3-dimethylpyridin-2-one]
 |  |  |  | < 5.30 | 5.30 to 6.30 | < 5.30 | 5.30 to 6.30 |  |  |  | COCCn1cc(-c2cc(S(C)(=O)=O)ccc2OCC2CC2)cc(C)c1=O [Example 244, 5-[2-(cyclopropylmethoxy)-5-methylsulfonylphenyl]-1-(2-methoxyethyl)-3-methylpyridin-2-one]
 |  |  |  | < 5.30 | > 6.30 | > 6.30 | > 6.30 |  |  |  | CCS(=O)(=O)c1ccc(O[C@H]2CC[C@H](O)CC2)c(-c2cn(C)c(=O)c3ccccc23)c1 [Example 181, 4-[5-ethylsulfonyl-2-(trans-4-hydroxycyclohexyl)oxyphenyl]-2-methylisoquinolin-1-one]
< 5.30 | 5.30 to 6.30 | 5.30 to 6.30 | 5.30 to 6.30 |  |  |  |  |  |  |  | Cn1cc(-c2cc(S(C)(=O)=O)ccc2OCC2CC2)cc(F)c1=O [Example 119, 5-[2-(cyclopropylmethoxy)-5-methylsulfonylphenyl]-3-fluoro-1-methylpyridin-2-one]
